Patent US20150141460A1, “Anti-inflammatory Compositions” (Cambridge Enterprise Limited, priority 2007, published 2015)

Columns and labels:
[1] = test system: SDF-1α induced migration of THP-1 cells; experiment: ChemoTx transwell migration assay, SDF-1α induced migration of THP-1 cells; assay type: cell-based; conditions: Homo sapiens; THP-1 cell line; maximal dose of chemoattractant; read-out: ED50 SDF-1α induced migration
Method: In principle, this assay consists of two chambers separated by a porous membrane. The chemoattractant is placed in the lower compartment and the cells are placed in the upper compartment. After incubation for a period at 37° C. the cells move towards the chemoattractant, and the number of cells in the lower compartment is proportional to the chemoattractant activity (relative to a series of controls).
Next, the chemoattractant solution to be placed in the lower compartment is prepared. For example, MCP-1 is diluted in GBSS+BSA to give a final concentration of 25 ng/ml. This is divided into two pots, as for the cell suspension. To one pot, the test compound is added to the same final concentration as was added to the cell suspension, while to the other pot an equal volume of GBSS+BSA plus vehicle as appropriate (e.g., not more than 1% DMSO) is added. Alternatively, other chemokines may be used (SDF-1α at 7.5 ng/ml; RANTES at 50 ng/ml; IL-8 at 10 ng/ml using neutrophils as the target cell population). […]
The impact of the test substance is calculated by comparing the chemoattractant-induced migration which occurred in the presence or absence of various concentrations of the test substance. Typically, the inhibition of migration is expressed as a percentage of the total chemoattractant-induced migration which was blocked by the presence of the compound. […]

[2] = test system: chemokine-induced migration; experiment: BSCI potency: inhibition of chemokine-induced migration in vitro (general statements); assay type: cell-based
[3] = test system: CD4+ splenocytes (IFN-γ / IL-4); experiment: Ovalbumin-induced model of asthma, T-helper cell polarisation (Th1/Th2 ratio) of CD4+ splenocytes by flow cytometry; assay type: in vivo, Brown Norway rats; conditions: 0.3 mg/kg daily via the oral route
Excerpt: Bars represent mean Th1/Th2 ratios, shown on the Y-axis, for groups of 10 animals, whiskers represent SEM; * p<0.05 versus unchallenged rats; † p<0.05 versus sensitised and challenged rats, in both cases using Student's unpaired t-test assuming equal variance, with two tails). All rats (except the ‘BN rats’ group, which was not exposed to ovalbumin) received the same sensitisation and challenge regimen, but were either treated with vehicle only (‘Sensitised+vehicle’), or with compound (I′) at 0.3 mg/kg bodyweight or with monteleukast (‘Singulair™’) at 30 mg/kg bodyweight, all administered daily by oral gavage.
Adult Brown Norway rats (200-300 g body weight; n=10 per group) were sensitised by a single intraperitoneal injection of 0.1 mg Ovalbumin on day 0. Each rat then received an intratracheal challenge with a solution of 1% ovalbumin (w/v) on day 8, and with 2% ovalbumin (w/v) on days 15, 18 and 21. The animals were then sacrificed 3 hours after the final challenge on day 21. […]
The spleen was also removed from each […] and placed in RPMI+10% FCS+antibiotics. […] The resulting cell suspension was then centrifuged (328 g; 5 mins) and washed in RPMI+10% FCS+antibiotics, before being resuspended in fresh media and counted using a haemocytometer. […]

CC(C)(C)C(=O)N[C@H]1CCCNC1=O [Compound (I′), (S)-3-(2′,2′-dimethylpropanoylamino)-tetrahydropyridin-2-one]
EC50 [1]: 0.05 nM | potency as a BSCI, fold more potent than the (R)-enantiomer [2]: 5-25 fold | effect on Th2 polarisation (Th1/Th2 ratio) [3]: significantly reversed the Th2 polarisation
